Test [1] relates to human smooth muscle cell migration. In words: Human smooth muscle cell migration toward plasma from MI patients (modified Boyden chamber). The format is cell-based. The note with it: for synergy with antioxidant on the inhibition of human smooth muscle cell migration: garlic ingredients 1 μM each plus ascorbic acid 3 μM, FIG. 5; for effect on human smooth muscle cell migration toward plasma from MI patients: antioxidants alone, 3 μM each, FIG. 3.
Method: Graph showing the modified Boyden chamber used to examine the effect of garlic ingredients, antioxidants, and combinations on human smooth muscle cell migration toward plasma obtained from acute myocardial infarction patients (MI) during balloon angioplasty and stent coronary intervention.
The procedure is as follow: 20 μl plasma was placed in the bottom chamber (A), smooth muscle suspension 1×10^6 cells in 5 μl with or without the various garlic active ingredients, antioxidants or combinations were placed in the top chamber (B). The chamber B was fitted over chamber A, covered and placed in a CO2 (5%)/O2 (95%) incubator for 22 hours at 37° C. The filter from chamber B was taken out of the chamber and the cells on the top were scraped off using a cell scraper. The filter was placed in formaldehyde, Triton X100, washing buffer solution, stained with Rhodamine phloyden, and then a washing solution as shown in station C (front view) and D (side view). The filter was then dried and put in a fluorescence plate reader to read the degree of fluorescence.

Test [2] relates to HUVEC. The test can be described thus: FGF2-induced endothelial cell tube formation on Matrigel. The format is cell-based, human. The protocol:
For the different in vitro assays human smooth muscle cells and human umbilical vein endothelial (HUVEC) cells were obtained from (Clonetics, Walkersville, Md.). Endothelial cells (EC) were grown to 80-90% confluence in Endothelial Growth Medium (EGM) containing hEGF 10 ng/ml, hydrocortisone […], gentamicin […], amphotercin-B 50 ug/ml, Blood Brain Extract 0.012 mg/ml and 2% Fetal Bovine Serum equilibrated with 95% air/5% CO2 at 37° C. HUVEC cells will be serially passed in Endothelial Growth in cell culture flasks coated with gelatin 0.2%, (Sigma, St. Louis, Mo.). Confluent cultures of endothelial cells between the 3rd and 6th passages were washes with HBSS and harvested using 0.025% trypsin/0.01% EDTA and counted by hemacytometer. […]
Microscopic Analysis of Endothetial Cell Tube Formation: […] Digital images of microtiter well sections were collected using a 3-CCD color video camera system ([…], New York, N.Y.) and analyzed with the Image-Pro Plus software (Media Cybernetics, Silver Spring, Md.). The area and major axis length of stained cells having a tubular morphology on the Matrigel surface counted from 5 images/well. Area data is expressed in units of 10^4 square microns and length data is expressed as length/area in units of mm/mm^2. […]

For test [3], the system named is bFGF-induced angiogenesis on the CAM. The test can be described thus: FGF2 (bFGF)-induced angiogenesis in the chick chorioallantoic membrane (CAM) model. The format is in vivo. The protocol:
In Vivo Angiogenesis: Ten-day old chick embryos were purchased from Spafas, Inc. (Preston, Conn.) and were incubated at 37° with 55% humidity generally referred to as chick chorioallantoic membrane (CAM) model. A small hole was punctured in the shell concealing the air sac with a hypodermic needle. A second hole was punctured in the shell on the broadside of the egg directly over an avascular portion of the embryonic membrane, as observed during candling. A false air sac was created beneath the second hole by the application of negative pressure to the first hole, which caused the CAM to separate form the shell. A window, approximately 1.0 cm2, was cut the in the shell over the dropped CAM with the use of a small crafts grinding wheel (Dermal, Division of Emerson Electric Company (Racine, Wis.) which allowed direct access to the underlying CAM.
Filter disks of #1 filter paper (Whatman International, United Kingdom) were soaked in 3 mg/ml cortisone acetate (Sigma, St. Louis, Mo.) in a solution of 95% ethanol and water and subsequently air dried under sterile conditions. […] Blood vessel branch points in the 5 mm filter disk area were counted at 30× magnification in a blinded fashion as a size-independent quantitative indicator of vascular sprouting in response to growth factors. As angiogenesis is characterized by the sprouting of new vessels in response to growth factors, counting blood vessel branch points is a useful quantitative means of obtaining an angiogenic index. […] Data was evaluated in terms of average number of blood vessel branch points per treatment group±standard deviation of measurement. […]
Microscopic Analysis of CAM Sections: CAM tissue directly beneath FGF2-saturated filter disk was resected from embryos treated 48 hours prior with compounds or controls. […] Digital images of CAM sections adjacent to filters were collected using a 3-CCD color video camera system (Toshiba America, New York, N.Y.) and analyzed with the Image-Pro Plus software (Media Cybernetics, Silver Spring, Md.). […]

In test [4] the test system is tumor growth in the CAM model. The test can be described thus: Chick chorioallantoic membrane tumor assay model. Type of test: in vivo. Particulars: different types of tumor; by inhibiting tumor-induced angiogenesis. Here is the method: In addition to the angiogenesis assays described above where the effect of the garlic sulfur containing ingredient Alliin±antioxidants were evaluated, the anti-tumor efficacy for Alliin+antioxidants were evaluated as well. Ten million tumor cells were placed on the surface of each CAM and were cultured for one week. The resulting tumors were excised and cut into 50 mg fragments. Cheresh et al., Cell 58: 945-953 (1989), Brooks et al., J. Cell Biol., 122:1351 (1993) and as described herein. These fragments were placed on additional CAMs and treated topically the following day with 0.11 mg in 25 μl of Alliin with and without anti-oxidant or saline. Forty eight hours later, CAMs were excised from the egg and the number of blood vessels entering the tumors were counted (as vessel branch points).
Data presented as mean blood vessel number per treatment group (+/− standard error of measurement). Each treatment group incorporated at least ten tumors per experiment. Representative tumors were photographed at 10× magnification. Tumors were then excised from the egg and tumor weights were determined for each tumor. Data presented as mean tumor weight per treatment group (+/− standard error of measurement). Statistical analyses were performed using Student's t-test.

In the case of `C=CCSSCC=C` [allyl disulfide], the “synergy with antioxidant on the inhibition of human smooth muscle cell migration” value in test [1] is on record as “synergy”.

In the case of `O=C1O[C@H]([C@@H](O)CO)C(O)=C1O` [ascorbic acid], in test [1], the “effect on human smooth muscle cell migration toward plasma from MI patients” value was “lack of effect”.

For Alliin, in test [1], the “synergy with antioxidant on the inhibition of human smooth muscle cell migration” value is listed as “synergy”. Also, in test [1] (qualitative, micrographs treated vs untreated, FIG. 4), the “inhibition of smooth muscle cell migration toward plasma from MI subjects” value is given as “Inhibition of smooth muscle cell migration”. The “efficacy on FGF2-induced EC tube formation” value in test [2] (Alliin ± antioxidants, FIG. 10, n=6) is “Concentration-dependent efficacy”. In test [2] (HUVEC, FGF2 50 ng/ml, alliin 0-0.011 mg), the “inhibition of cytokine stimulated tube formation” value is given as 90-100%. The “efficacy on FGF2-induced angiogenesis in the CAM model” value in test [3] (Alliin ± antioxidants, FIG. 11B, n=6) was “Dose-dependent efficacy”. Besides, the “blockade of bFGF-induced angiogenesis on the CAM” value in test [3] (applied to filter disk or injected intravenously 24 h after bFGF) is reported as “at least 92+/−10%”. Besides, the “inhibition of growth of new blood vessels induced by bFGF (vessel branch points)” value in test [3] (applied to the growth factor saturated filter 24 h after bFGF, CAMs excised after three days) was 92 +/−10%. In addition, the “tumor growth in the CAM model” value in test [4] is on record as “inhibited”.

For the compound ethylene diphenyl urea [EDU], the “effect on human smooth muscle cell migration toward plasma from MI patients” value in test [1] is recorded as “lack of effect”.
